The results in this text go back to US7262185B2, “Benzazepine derivative, process for producing the same, and use” (Takeda Chemical Industries Ltd., priority 2001, dated 2007).

T1 sequence (P51681 whole entry): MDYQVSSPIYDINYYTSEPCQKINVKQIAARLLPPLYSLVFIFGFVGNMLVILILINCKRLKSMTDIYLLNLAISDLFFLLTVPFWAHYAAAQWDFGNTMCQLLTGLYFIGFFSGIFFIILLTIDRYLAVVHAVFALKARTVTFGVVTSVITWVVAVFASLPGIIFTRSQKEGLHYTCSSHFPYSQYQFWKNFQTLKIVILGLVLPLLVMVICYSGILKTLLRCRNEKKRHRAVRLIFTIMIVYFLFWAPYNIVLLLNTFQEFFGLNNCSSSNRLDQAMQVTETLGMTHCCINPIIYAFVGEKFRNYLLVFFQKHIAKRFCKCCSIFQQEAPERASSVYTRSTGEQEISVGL

The first assay concerns the target T1, human CCR5 chemokine receptor (Homo sapiens, UniProt P51681).
T1 construct: expressed in transfected cells
Nature of the assay: Inhibition of [125I]-RANTES binding to CCR5/CHO cells (CCR5 antagonistic activity). The conditions noted are these: 40 min, test compound 1 μM, [125I]-RANTES as ligand, room temperature, read-out: Binding Inhibitory Ratio (%). On the procedure:
Cloning of CCR5 gene from human spleen cDNA was conducted using the PCR method. Using spleen cDNA (0.5 ng) (TOYOBO CO., LTD, QUICK-Clone cDNA) as a template, PCR was performed in a DNA Thermal Cycler 480 (manufactured by Perkin Elmer) (reaction conditions: 30 cycles of 95° C. for 1 minute, 60° C. for 1 minute, and 75° C. for 5 minutes) by adding primer sets, SEQ. ID NO: 1 (sequence length: 34; sequence type: nucleic acid; chain number: single strand; topology: linear; kind of sequence: other nucleic acid synthetic. DNA) described in Experimental. Example (1) of WO 99/32100, and SEQ ID NO: 2 (sequence length: 34; sequence type: nucleic acid; chain number: single strand; topology: linear; kind of sequence: other nucleic acid synthetic. DNA) described in Experimental. Example (1) of WO 99/32100, (25 pmol, respectively), which were prepared referring to the nucleotide sequence of CCR5 gene, as reported by Samson et al. (Biochemistry 35 (11), 3362-3367 (1996)) and by using TaKaRa. EX Taq (Takara Shuzo). The resultant. PCR product was subjected to agarose gel electrophoresis to collect an approximately 1.0 kb. DNA fragment, which was subjected to an Original TA Cloning Kit (Funakoshi Co., Ltd.) to carry out cloning of CCR5 gene.
The plasmid obtained above was digested with restriction enzymes XbaI (Takara Shuzo Co., Ltd.) and BamHI (Takara Shuzo Co., Ltd.), and then subjected to agarose gel electrophoresis to collect DNA fragment of about 1.0 kb. The DNA fragment and plasmid pcDNA 3.1 (Funakoshi. Co., Ltd.) for expression in animal cells, which was previously digested with XbaI and BamHI, were mixed and ligated by DNA Ligation Kit Ver. 2 (Takara Shuzo Co., Ltd.). The resulting plasmid was subjected to transformation into. E. coli JM109 competent cells (Takara Shuzo Co., Ltd.) to obtain plasmid pCKR5.
CHO-K1 cells were cultured in a 750-ml tissue culture flask (Becton, Dickinson and Company.) using. Ham F12 medium (NIHON PHARMACEUTICAL CO., LTD.) containing 10% fetal bovine serum (Lifetech Oriental) and were collected using 0.5 g/L trypsin-0.2 g/L EDTA (Lifetech Oriental). The cells were washed with PBS (Lifetech Oriental), centrifuged (1000 rpm, 5 minutes), and suspended in PBS. The DNA was introduced into the cells using a Gene Pulser (Bio-Rad Laboratories, Inc.) under the following conditions. Namely, 8×10^6 cells and 10 μg of plasmid pCKR5 for expression of human CCR5 were placed in a cuvette having a 0.4-cm gap, and electroporation was carried out with a voltage 0.25 kV and 960 μF of capacitance. Then, the cells were transferred into Ham's. F12 medium containing 10% fetal bovine serum, and incubated for 24 hours. The cells were collected, centrifuged, and suspended in Ham' F12 medium containing 10% fetal bovine serum and Geneticin (Lifetech Oriental) at a concentration of 500 μg/ml. The suspension of cells was diluted to a concentration of 10^4 cells/ml, and was inoculated onto 96-well plate (Becton Dickinson), to obtain Geneticin-resistant strain.
Then, resulting. Geneticin-resistant strain were cultured on 96-well plate (Becton Dickinson), and CCR5-expressing cells were selected from the resistant cells. Namely, in an assay buffer, (Ham's F12 medium containing 0.5% BSA, and 20 mM HEPES (Wako Pure Chemical Ind., pH 7.2)) to which was added […][125I]-RANTES (Amersham) as a ligand, the cells were subjected to a binding reaction at room temperature for 40 minutes. Wells containing the cells were washed with ice-cooled PBS, and 50 μl/well of 1M NaOH was added and stirred. The cells to which the ligand was bound specifically, i.e., CCR5/CHO cells, were selected by measurement of radioactivity using a […].
The CCR5/CHO cells were inoculated onto 96-well microplate at a concentration of 5×10^4 cells/well, and were cultured for 24 hours. After removal of the medium by aspiration, to each well was added an assay buffer containing a test compound (1 μM), and [125I]/RANTES (Amersham) used as a ligand at a concentration of […]. […]
Consider `CCCCOCCOc1ccc(-c2ccc3c(c2)C=C(C(=O)Nc2ccc([S+]([O-])Cc4nccn4CCCC(N)=O)cc2)CCN3CC(C)C)cc1` (single isomer, unassigned; (-)) [Compound 418, (−)-N-[4-[[[1-(4-amino-4-oxobutyl)-1H-imidazol-2-yl]methyl]sulfinyl]phenyl]-7-[4-(2-butoxyethoxy)phenyl]-1-isobutyl-2,3-dihydro-1H-1-benzazepine-4-carboxamide], for which the inhibition at 1 µM amounted to 92%.
The same measure, in the same setting: to `CCCCOCCOc1ccc(-c2ccc3c(c2)C=C(C(=O)Nc2ccc([S+]([O-])Cc4cccnc4)cc2)CCN3CC(C)C)cc1` (stereo not drawn) [Compound 210, 7-[4-(2-butoxyethoxy)phenyl]-1-isobutyl-N-[4-[(3-pyridinylmethyl)sulfinyl]phenyl]-2,3-dihydro-1-benzazepine-4-carboxamide] belongs 97%; to `CCCCOCCOc1ccc(-c2ccc3c(c2)C=C(C(=O)Nc2ccc([S+]([O-])Cc4nnnn4CC)cc2)CCN3CC(C)C)cc1` (stereo not drawn) [Compound 242, 7-[4-(2-butoxyethoxy)phenyl]-1-isobutyl-N-[4-[[(1-ethyl-tetrazol-5-yl)methyl]sulfinyl]phenyl]-2,3-dihydro-1-benzazepine-4-carboxamide], 94%.
The same measure, in the same setting: next, `CCCCOCCOc1ccc(-c2ccc3c(c2)C=C(C(=O)Nc2ccc(SCc4cnc5n4CCCC5)cc2)CCN3CC(C)C)cc1` [Compound 404, 7-[4-(2-butoxyethoxy)phenyl]-1-isobutyl-N-[4-[[(5,6,7,8-tetrahydroimidazo[1,2-a]pyridin-3-yl)methyl]thio]phenyl]-2,3-dihydro-1H-1-benzazepine-4-carboxamide]: 85%; `CCCCOCCOc1ccc(-c2ccc3c(c2)C=C(C(=O)Nc2ccc(C(O)c4cccc[n+]4[O-])c(C(F)(F)F)c2)CCN3CCC)cc1` (stereo not drawn) [Compound 13, 7-[4-(2-butoxyethoxy)phenyl]-N-[4-[hydroxy(1-oxidopyridin-2-yl)methyl]-3-trifluoromethylphenyl]-1-propyl-2,3-dihydro-1H-1-benzazepine-4-carboxamide]: 100%; `CCCCOCCOc1ccc(-c2ccc3c(c2)C=C(C(=O)Nc2ccc([S+]([O-])CC4=NNCN4CCC)nn2)CCN3CC(C)C)cc1` (stereo not drawn) [Compound 68, 7-[4-(2-butoxyethoxy)phenyl]-1-isobutyl-N-[6-[(4-propyl-1H-1,2,4-triazol-3-yl)methylsulfinyl]pyridazin-3-yl]-2,3-dihydro-1H-1-benzazepine-4-carboxamide]: 97%.
The same measure, in the same setting: to `CCCCOCCOc1ccc(-c2ccc3c(c2)C=C(C(=O)Nc2ccc([S+]([O-])Cc4cncn4CCOC(C)=O)cc2)CCN3CC(C)C)cc1` (stereo not drawn) [Compound 427, [5-[[[4-[[[7-[4-(2-butoxyethoxy)phenyl]-1-isobutyl-2,3-dihydro-1H-1-benzazepin-4-yl]carbonyl]amino]phenyl]sulfinyl]methyl]-1H-imidazol-1-yl]ethyl acetate] belongs 100%; to `CCCCOCCOc1ccc(-c2ccc3c(c2)C=C(C(=O)Nc2ccc([S+]([O-])Cc4cncn4CCC)cc2)CCN3CCC)cc1` (stereo not drawn) [Compound 375, 7-[4-(2-butoxyethoxy)phenyl]-1-propyl-N-[4-[[[1-propylimidazol-5-yl]methyl]sulfinyl]phenyl]-2,3-dihydro-1-benzazepine-4-carboxamide], 92%; to `CCCCOCCOc1ccc(-c2ccc3c(c2)C=C(C(=O)Nc2ccc(SCCn4cnnc4)cc2)CCN3CC(C)C)cc1` [Compound 154, 7-[4-(2-butoxyethoxy)phenyl]-N-[4-(4H-1,2,4-triazol-4-ylethylthio)phenyl]-1-isobutyl-2,3-dihydro-1H-benzazepine-4-carboxamide], 100%.
`CCCCOCCOc1ccc(-c2ccc3c(c2)C=C(C(=O)Nc2ccc(CCc4nncn4CCC)cc2)CCN3CC(C)C)cc1` [Compound 152, 7-[4-(2-butoxyethoxy)phenyl]-1-isobutyl-N-[4-[2-(4-propyl-4H-1,2,4-triazol-3-yl)ethyl]phenyl]-2,3-dihydro-1H-benzazepine-4-carboxamide]: the inhibition at 1 µM was found to be 97%.
Still for that read-out and setting: next, `CCCCOCCOc1ccc(-c2ccc3c(c2)C=C(C(=O)Nc2ccc([S+]([O-])Cc4nccn4C4CC4)cc2)CCN3CC(C)C)cc1` (stereo not drawn) [Compound 367, 7-[4-(2-butoxyethoxy)phenyl]-N-[4-[[[1-cyclopropylimidazol-2-yl]methyl]sulfinyl]phenyl]-1-isobutyl-2,3-dihydro-1-benzazepine-4-carboxamide]: 96%.
As for `CCCCOCCOc1ccc(-c2ccc3c(c2)C=C(C(=O)Nc2ccc(S(=O)(=O)Cc4nccn4CCCC(=O)NC)cc2)CCN3CC(C)C)cc1` [Compound 425, 7-[4-(2-butoxyethoxy)phenyl]-N-[4-[[[1-[4-(methylamino)-4-oxobutyl]-1H-imidazol-2-yl]methyl]sulfonyl]phenyl]-1-isobutyl-2,3-dihydro-1H-1-benzazepine-4-carboxamide], the inhibition at 1 µM is 100%.
As for `CCCCOCCOc1ccc(-c2ccc3c(c2)C=C(C(=O)Nc2ccc([S+]([O-])Cc4cccnc4C)nc2)CCN3CC(C)C)cc1` (stereo not drawn) [Compound 272, 7-[4-(2-butoxyethoxy)phenyl]-1-isobutyl-N-[6-[[(2-methyl-3-pyridinyl)methyl]sulfinyl]-3-pyridinyl]-2,3-dihydro-1-benzazepine-4-carboxamide], the inhibition at 1 µM was found to be 98%.
On the same count and under the same terms, next, `CCCCOCCOc1ccc(-c2ccc3c(c2)C=C(C(=O)Nc2ccc(SCc4nccn4C4CC4)cc2)CCN3CC(C)C)cc1` [Compound 366, 7-[4-(2-butoxyethoxy)phenyl]-N-[4-[[[1-cyclopropylimidazol-2-yl]methyl]sulfanyl]phenyl]-1-isobutyl-2,3-dihydro-1-benzazepine-4-carboxamide]: 96%.

Still in this assay, the particulars now being: test compound 1 μM, [125I]-RANTES as ligand, room temperature, 40 minutes.
Regarding `C#CCn1cncc1C[S+]([O-])c1ccc(NC(=O)C2=Cc3cc(-c4ccc(OCCOCCCC)cc4)ccc3N(CC(C)C)CC2)cc1` (stereo not drawn) [Compound 443, 7-[4-(2-butoxyethoxy)phenyl]-1-isobutyl-N-[4-[[(1-(2-propin-1-yl)imidazol-5-yl)methyl]sulfinyl]phenyl]-2,3-dihydro-1H-1-benzazepine-4-carboxamide], the “Binding Inhibitory Ratio (%)” value is given as 100%.
Same read-out and setting: to `CCCCOCCOc1ccc(-c2ccc3c(c2)C=C(C(=O)Nc2ccc([S+]([O-])Cc4nccn4CCCO)cc2)CCN3CC(C)C)cc1` (stereo not drawn) [Compound 437] belongs 100%.
On the same count and under the same terms, to `CCCCOCCOc1ccc(-c2ccc3c(c2)C=C(C(=O)Nc2ccc([S+]([O-])Cc4cncn4CCC)cc2)CCN3CCC)cc1` (single isomer, unassigned; (-)) [Compound 378, (−)-7-[4-(2-butoxyethoxy)phenyl]-1-propyl-N-[4-[[[1-propylimidazol-5-yl]methyl]sulfinyl]phenyl]-2,3-dihydro-1-benzazepine-4-carboxamide] belongs 87%.
The same measure, in the same setting: next, `CCCCOCCOc1ccc(-c2ccc3c(c2)C=C(C(=O)Nc2ccc(SCc4nccn4CCCO)cc2)CCN3CC(C)C)cc1` [Compound 436]: 100%.
